Assay [1] relates to Human pancreatic cancer cell line AsPC-1 (G12D mutation Kras). In words: AsPC-1 cell growth inhibition (AsPC-1 CGI). In kind it is cell-based. Conditions: read-out: AsPC-1 cell growth inhibition, 50% growth inhibitory concentration (IC50 value); 96 hours, CellTiter-Glo, values classified in ranges. Background: ATP-based viability assays read luminescence as a measure of living cells.
Procedure: Test compounds were serially dilated with dimethyl sulfoxide, and 200 nL was then dispensed to a U-bottom 96-well plate using Labcyte Echo. […] The cell suspension was dispensed to a. plate containing a test compound at 100 μL per well and incubated at 37° C. in a 5% carbon dioxide gas incubator. 96 hours later, 80 μL of CellTiter-Glo (Promega) was added to each well and fluorescence was measured.

Assay [2] concerns the target protein-protein interaction between Kras and SOS1 (biotin-tagged human Kras loaded with GDP, His-tagged human SOS1) (Homo sapiens (Human), UniProt P01116, G12D). Nature of the assay: Protein-protein interaction inhibition between Kras and SOS1 (KrasG12D-SOS PPI) using AlphaScreen.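 Further: kras produced in E. coli, Ni-coupled donor beads and streptavidin acceptor beads, excitation 680 nm with emission detected at 520–620 nm via singlet oxygen transfer.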 In kind it is biochemical. Conditions: AlphaScreen; biotin-tagged human Kras loaded with GDP, His-tagged human SOS1; read-out: KRAS G12D-SOS PPI IC50.

SMILES strings stand for the structures. Numbered stars: 1 amine (or outer) side, 2 acyl side, 3 side chain; on linkers, the order of the positions; unused ones are H or OH. Bridge positions count the residues as written; N and C are the ends. Square brackets hold non-standard residues; d marks the D form. Peptide text beside a SMILES is read from it. * marks the point of attachment. hPhe(3,5-F2-4-CF3) = N[C@@H](CCc1cc(F)c(C(F)(F)F)c(F)c1)C(=O)O; hPhe(3-Cl-4-CF3) = N[C@@H](CCc1ccc(C(F)(F)F)c(Cl)c1)C(=O)O; NMePhe(4-CF3) = CN[C@@H](Cc1ccc(C(F)(F)F)cc1)C(=O)O; NEtPhe(4-Me) = CCN[C@@H](Cc1ccc(C)cc1)C(=O)O; NMePhe(4-Me) = CN[C@@H](Cc1ccc(C)cc1)C(=O)O; NMeNle(6-CHF2) = CN[C@@H](CCCCC(F)F)C(=O)O; NMePhe(4-F) = CN[C@@H](Cc1ccc(F)cc1)C(=O)O; NMedβ3hAla = C[C@H](CC(=O)[*:2])N(C)[*:1]; NMeGly(cPent) = CN[C@H](C(=O)O)C1CCCC1; Pro(4,4-F2) = O=C(O)[C@@H]1CC(F)(F)CN1; Met(O2) = CS(=O)(=O)CC[C@H](N)C(=O)O; NMeCha = CN[C@@H](CC1CCCCC1)C(=O)O; NMehLeu = CN[C@@H](CCC(C)C)C(=O)O; Hyp = O=C(O)[C@@H]1C[C@@H](O)CN1; NMeChg = CN[C@H](C(=O)O)C1CCCCC1; NMeI = CC[C@H](C)[C@H](NC)C(=O)O; N(CH2CH2)2CF2 = FC1(F)CCN(*)CC1; NMeD = CN[C@@H](CC(=O)O)C(=O)O; NMeL = CN[C@@H](CC(C)C)C(=O)O; Ahp(2) = CCCCC[C@H](N)C(=O)O; hLeu = CC(C)CC[C@H](N)C(=O)O; NMeNva = CCC[C@H](NC)C(=O)O; NMeV = CN[C@H](C(=O)O)C(C)C; d(β3hA) = C[C@@H](N)CC(=O)O; NMeA = CN[C@@H](C)C(=O)O; Piperidide = C1CCN(*)CC1; Pyrrolidide = C1CCN(*)C1; dNMeA = CN[C@H](C)C(=O)O; Ac5c = NC1(C(=O)O)CCCC1; Aze = O=C(O)[C@@H]1CCN1; Sar = CNCC(=O)O

As to `CC[C@H](C)[C@@H]1NC(=O)[C@H](CC(C)C)N(C)C(=O)C[C@@H](C)NC(=O)[C@H](C2CCCC2)N(C)C(=O)[C@@H](C(C)C)NC(=O)[C@@H]2CCCN2C(=O)[C@H](CCc2ccc(C(F)(F)F)c(Cl)c2)NC(=O)CN(C)C(=O)[C@H](Cc2ccc(C)cc2)N(C)C(=O)[C@@H]2CCN2C(=O)[C@H](C)N(C)C1=O` [Compound 598] (cyclo([Aze][NMePhe(4-Me)][Sar][hPhe(3-Cl-4-CF3)]P[dV][NMeGly(cPent)][d(β3hA)][NMeL]I[NMeA])), the results for the IC50 in assay [1] and in assay [2] were more than 500 nM and 300 nM, respectively.
On to `CC[C@H](C)[C@@H]1NC(=O)[C@H](CC(C)C)N(C)C(=O)C[C@@H](C(=O)N2CCCCC2)N(C)C(=O)[C@H](C2CCCCC2)N(C)C(=O)C2(CCCC2)NC(=O)[C@H](CCCCC(F)F)N(C)C(=O)[C@H](CCc2ccc(C(F)(F)F)c(Cl)c2)NC(=O)CN(C)C(=O)[C@H](CC2CCCCC2)N(C)C(=O)CN(C)C(=O)CN(C)C1=O` [Compound 796] ([NMeL]I[Sar][Sar][NMeCha][Sar][hPhe(3-Cl-4-CF3)][NMeNle(6-CHF2)][Ac5c][NMeChg][NMeD]-Piperidide; lactam N-11), for which the values for the IC50 in assay [1] and in assay [2] were more than 500 nM and 9.3 nM, respectively.
Regarding `CC[C@H](C)[C@@H]1NC(=O)[C@H](CC(C)C)N(C)C(=O)C[C@@H](C)N(C)C(=O)[C@H]([C@@H](C)CC)N(C)C(=O)C2(CCCC2)NC(=O)[C@@H]2CC(F)(F)CN2C(=O)[C@H](CCc2ccc(C(F)(F)F)c(Cl)c2)NC(=O)CN(C)C(=O)[C@H](Cc2ccc(C(F)(F)F)cc2)N(C)C(=O)[C@@H]2CCN2C(=O)[C@H](C)N(C)C1=O` [Compound 668] (cyclo([Ac5c][NMeI][NMedβ3hAla][NMeL]I[NMeA][Aze][NMePhe(4-CF3)][Sar][hPhe(3-Cl-4-CF3)][Pro(4,4-F2)])), the IC50 is not above 20 nM in assay [1] and 1.9 nM in assay [2].
In the case of `CCO[C@@H]1C[C@H]2C(=O)NC3(CCCC3)C(=O)N(C)[C@@H](C3CCCC3)C(=O)N(C)[C@H](C)CC(=O)N(C)[C@@H](CC(C)C)C(=O)N[C@@H]([C@@H](C)CC)C(=O)N(C)[C@@H](C)C(=O)N3CC[C@H]3C(=O)N(CC)[C@@H](Cc3ccc(C)cc3)C(=O)N(C)CC(=O)N[C@@H](CCc3ccc(C(F)(F)F)c(Cl)c3)C(=O)N2C1` [Compound 775] (cyclo([Ac5c][NMeGly(cPent)][NMedβ3hAla][NMeL]I[NMeA][Aze][NEtPhe(4-Me)][Sar][hPhe(3-Cl-4-CF3)][Hyp](Et))), the IC50 in assay [1] was not above 20 nM; in assay [2], 4.6 nM.
The corresponding values for `CCO[C@@H]1C[C@H]2C(=O)NC3(CCCC3)C(=O)N(C)[C@@H](C3CCCC3)C(=O)N(C)[C@H](C)CC(=O)N(C)[C@@H](CC(C)C)C(=O)N[C@@H]([C@@H](C)CC)C(=O)N(C)CC(=O)N(C)CC(=O)N(C)[C@@H](Cc3ccc(C(F)(F)F)cc3)C(=O)N(C)CC(=O)N[C@@H](CCc3cc(F)c(C(F)(F)F)c(F)c3)C(=O)N2C1` [Compound 66] (cyclo([Ac5c][NMeGly(cPent)][NMedβ3hAla][NMeL]I[Sar][Sar][NMePhe(4-CF3)][Sar][hPhe(3,5-F2-4-CF3)][Hyp](Et))) are not above 20 nM and 3.6 nM.
The corresponding values for `CC[C@H](C)[C@@H]1NC(=O)[C@H](C)N(C)C(=O)C[C@@H](C)NC(=O)[C@H](C(C)C)N(C)C(=O)C2(CCCC2)NC(=O)[C@@H]2CCCN2C(=O)[C@H](CCc2ccc(C(F)(F)F)c(Cl)c2)NC(=O)[C@@H](C)N(C)C(=O)[C@H](Cc2ccc(F)cc2)N(C)C(=O)[C@@H]2CCN2C(=O)[C@H](C)N(C)C1=O` [Compound 1702] (cyclo([Ac5c][NMeV][d(β3hA)][NMeA]I[NMeA][Aze][NMePhe(4-F)][dNMeA][hPhe(3-Cl-4-CF3)]P)) are more than 500 nM and 31 nM.
In the case of `CC[C@H](C)[C@@H]1NC(=O)[C@H](CCC(C)C)N(C)C(=O)C[C@@H](C(=O)N(C)C)N(C)C(=O)[C@H]([C@@H](C)CC)N(C)C(=O)C2(CCCC2)NC(=O)[C@@H]2CCCN2C(=O)[C@H](CCc2ccc(C(F)(F)F)c(Cl)c2)NC(=O)CN(C)C(=O)[C@H](Cc2ccc(C)cc2)N(C)C(=O)[C@@H]2CCN2C(=O)[C@H](C)NC1=O` [Compound 308] ([NMehLeu]IA[Aze][NMePhe(4-Me)][Sar][hPhe(3-Cl-4-CF3)]P[Ac5c][NMeI][NMeD]-NMe2; lactam N-11), the figures for the IC50 in assay [1] and in assay [2] were not above 20 nM and 0.93 nM, respectively.
`CC(C)C[C@H]1C(=O)N[C@@H](CCS(C)(=O)=O)C(=O)N(C)[C@@H](C)C(=O)N2CC[C@H]2C(=O)N(C)[C@@H](CC2CCCCC2)C(=O)N(C)CC(=O)N[C@@H](CCc2ccc(C(F)(F)F)c(Cl)c2)C(=O)N2CCC[C@H]2C(=O)NC2(CCCC2)C(=O)N(C)[C@@H](C(C)C)C(=O)N(C)[C@H](C(=O)N2CCCCC2)CC(=O)N1C` [Compound 174] ([NMeL][Met(O2)][NMeA][Aze][NMeCha][Sar][hPhe(3-Cl-4-CF3)]P[Ac5c][NMeV][NMeD]-Piperidide; lactam N-11): the IC50 was more than 500 nM in assay [1] and 57 nM in assay [2].
On to `CCC[C@H]1C(=O)N[C@@H]([C@@H](C)CC)C(=O)N(C)CC(=O)N(C)CC(=O)N(C)[C@@H](CC2CCCCC2)C(=O)N(C)CC(=O)N[C@@H](CCc2cc(F)c(C(F)(F)F)c(F)c2)C(=O)N2C[C@H](OCC)C[C@H]2C(=O)NC2(CCCC2)C(=O)N(C)[C@@H](C2CCCCC2)C(=O)N(C)[C@H](C(=O)N2CCCC2)CC(=O)N1C` [Compound 1367] ([NMeNva]I[Sar][Sar][NMeCha][Sar][hPhe(3,5-F2-4-CF3)][Hyp](Et)[Ac5c][NMeChg][NMeD]-Pyrrolidide; lactam N-11), for which the IC50 is not above 20 nM in assay [1] and 0.65 nM in assay [2].
On to `CC[C@H](C)[C@@H]1NC(=O)[C@H](CC(C)C)N(C)C(=O)C[C@@H](C(=O)N(C)C)NC(=O)[C@H](C(C)C)N(C)C(=O)C2(CCCC2)NC(=O)[C@H](CC(=O)N2CCC(F)(F)CC2)N(C)C(=O)[C@H](CCc2ccc(C(F)(F)F)c(Cl)c2)NC(=O)CN(C)C(=O)[C@H](CC2CCCCC2)N(C)C(=O)CN(C)C(=O)CN(C)C1=O` [Compound 97] ([NMeL]I[Sar][Sar][NMeCha][Sar][hPhe(3-Cl-4-CF3)][NMeD](N(CH2CH2)2CF2)[Ac5c][NMeV]D-NMe2; lactam N-11), for which the values for the IC50 in assay [1] and in assay [2] were more than 500 nM and 40 nM, respectively.
Consider `CCCCC[C@@H]1NC(=O)[C@H](CC(C)C)N(C)C(=O)C[C@@H](C(=O)N2CCCCC2)N(C)C(=O)[C@H](C(C)C)N(C)C(=O)C2(CCCC2)NC(=O)[C@@H]2CCCN2C(=O)[C@H](CCc2ccc(C(F)(F)F)c(Cl)c2)NC(=O)CN(C)C(=O)[C@H](CC2CCCCC2)N(C)C(=O)[C@@H]2CCN2C(=O)[C@H](C)N(C)C1=O` [Compound 1826] ([NMeL][Ahp(2)][NMeA][Aze][NMeCha][Sar][hPhe(3-Cl-4-CF3)]P[Ac5c][NMeV][NMeD]-Piperidide; lactam N-11), for which the IC50 is more than 500 nM in assay [1] and 99 nM in assay [2].
Consider `CC(C)CC[C@@H]1NC(=O)[C@H](CC(C)C)N(C)C(=O)C[C@@H](C(=O)N2CCCCC2)N(C)C(=O)[C@H](C(C)C)N(C)C(=O)C2(CCCC2)NC(=O)[C@@H]2CCCN2C(=O)[C@H](CCc2ccc(C(F)(F)F)c(Cl)c2)NC(=O)CN(C)C(=O)[C@H](CC2CCCCC2)N(C)C(=O)[C@@H]2CCN2C(=O)[C@H](C)N(C)C1=O` [Compound 1697] ([NMeL][hLeu][NMeA][Aze][NMeCha][Sar][hPhe(3-Cl-4-CF3)]P[Ac5c][NMeV][NMeD]-Piperidide; lactam N-11), for which the IC50 in assay [1] was more than 500 nM; in assay [2] it was 110 nM.

(Values after US20240148821A1, “PHARMACEUTICAL USE OF CYCLIC PEPTIDE COMPOUND” (CHUGAI SEIYAKU KABUSHIKI KAISHA, priority 2021, published 2024).)
